Test system: immunoglobulin light chain protein WIL-FL T46L
Test: Differential scanning fluorimetry (thermal shift) assay
Type: binding
Details: Table A; temperature shift [Tm]compound-[Tm]vehicle; recombinant WIL-FL T46L

Row | SMILES | DSF
1 | Cc1cc(N2CC3CC2(c2ccccc2)C3)cn2nc(C(=O)N3C[C@@H]4CN(c5cccc(C(=O)O)n5)C[C@@H]4C3)nc12 [Compound 297] | * (0-0.5° C.=*)
2 | Cc1nc(CC2C3COC2(c2nc4c(C)cc(N5CC[C@](C)(c6ccccc6)C5)cn4n2)C3)n[nH]1 (stereo partly drawn) [Compound 9, 8-methyl-6-[(3R)-3-methyl-3-phenyl-pyrrolidin-1-yl]-2-[5-[(5-methyl-1H-1,2,4-triazol-3-yl)methyl]-2-oxabicyclo[2.1.1]hexan-1-yl]-[1,2,4]triazolo[1,5-a]pyridine] | ***** (>2.5° C.=*****)
3 | Cc1cc(N2CC[C@](C)(c3ccccc3)C2)cn2nc(C(=O)NCC3(O)CC3)nc12 [Compound 120] | ***** (>2.5° C.=*****)
4 | Cc1cc(N2CC[C@](C)(c3ccccc3)C2)cn2nc(C34CC(CO3)C4CNc3cccc(C(=O)O)n3)nc12 (stereo partly drawn) [Compound 8, 6-[[1-[8-methyl-6-[(3R)-3-methyl-3-phenyl-pyrrolidin-1-yl]-[1,2,4]triazolo[1,5-a]pyridin-2-yl]-2-oxabicyclo[2.1.1]hexan-5-yl]methylamino]pyridine-2-carboxylic acid] | ***** (>2.5° C.=*****)
5 | Cc1cc(N2CC[C@](C)(c3ccccc3)C2)cn2nc(C(=O)N3CC4(CC(Oc5cccc(C(=O)O)n5)C4)C3)nc12 [Compound 221] | ***** (>2.5° C.=*****)
6 | Cc1cc(N2CC[C@](C)(c3ccccc3)C2)cn2nc(C(=O)N3CCC4(CC3)CCN(c3cccc(C(=O)O)n3)C4)nc12 [Compound 239] | ***** (>2.5° C.=*****)
7 | Cc1cc(N2CCC(C)(c3ccc(F)cc3)C2)cn2nc(C(=O)NC3CCN(c4ccnc(C(=O)O)c4)CC3)nc12 (stereo not drawn) [Compound 422] | ***** (>2.5° C.=*****)
8 | CNC(=O)c1nc2c(C)cc(N3CC[C@@](C)(c4ccccc4)C3)cc2o1 [Compound 435] | ***** (>2.5° C.=*****)
9 | Cc1cc(N2CC[C@](C)(c3ccccc3)C2)cn2nc(C(=O)Nc3ccnc(C(=O)O)c3)nc12 [Compound 262] | ***** (>2.5° C.=*****)
10 | Cc1cc(N2CC[C@](C)(c3ccccc3)C2)cn2nc(C34CC(CO3)C4C(C)(C)O)nc12 (stereo partly drawn) [Compound 73] | ***** (>2.5° C.=*****)
11 | COC(=O)c1cccc(N2C[C@H]3CN(C(=S)c4nc5c(C)cc(N6CCC(C)(c7nnc(C)s7)C6)cn5n4)C[C@H]3C2)n1 (stereo partly drawn) [Compound 38, methyl 6-[5-[8-methyl-6-[3-methyl-3-(5-methyl-1,3,4-thiadiazol-2-yl)pyrrolidin-1-yl]-[1,2,4]triazolo[1,5-a]pyridine-2-carbothioyl]-1,3,3a, 4,6,6a-hexahydropyrrolo[3,4-c]pyrrol-2-yl]pyridine-2-carboxylate] | * (0-0.5° C.=*)
12 | Cc1cc(OC[C@H](C)c2ccccc2)cn2nc(C(=O)NCC(C)(C)O)nc12 [Compound 317] | ***** (>2.5° C.=*****)
13 | Cc1cc(N2CC[C@](C)(c3ccccc3)C2)cn2nc(C34CC(CO)(CO3)C4C(N)=O)nc12 (stereo partly drawn) [Compound 42] | ***** (>2.5° C.=*****)
14 | Cc1cc(N2CC[C@](C)(c3ccccc3)C2)cn2nc(C34CC(CO3)C4CC(N)=O)nc12 (stereo partly drawn) [Compound 85] | ***** (>2.5° C.=*****)
15 | CNC(=O)c1nc2c(C(C)O)cc(N3CC[C@](C)(c4ccccc4)C3)cn2n1 (stereo partly drawn) [Compound 336] | ***** (>2.5° C.=*****)
16 | Cc1cc(N2CC3(CC[C@H]3c3ccccc3)C2)cn2nc(C(=O)N3CC[C@@]4(CCN(c5cccc(C(=O)O)n5)C4)C3)nc12 [Compound 24A, Lithium 6-((R)-7-(8-methyl-6-((S)-5-phenyl-2-azaspiro[3.3]heptan-2-yl)-[1,2,4]triazolo[1,5-a]pyridine-2-carbonyl)-2,7-diazaspiro[4.4]nonan-2-yl)picolinate] | ***** (>2.5° C.=*****)
17 | Cc1cc(N2CC[C@](C)(c3ccccc3)C2)cn2nc(C(=O)NC3COC4(CCN(c5cccc(C(=O)O)n5)C4)C3)nc12 (stereo partly drawn) [Compound 220] | ***** (>2.5° C.=*****)
18 | Cc1cc(OC[C@H](C)c2ccccc2)cn2nc(C(=O)NC3CCN(c4ccnc(C(=O)O)c4)CC3)nc12 [Compound 320] | ***** (>2.5° C.=*****)
19 | CC(=O)NC12COC(c3nc4c(C)cc(N5CC[C@](C)(c6ccccc6)C5)cn4n3)(C1)C2 [Compound 52] | ***** (>2.5° C.=*****)
20 | Cc1cc(N2CC[C@](C)(c3ccccc3)C2)cn2nc(C(=O)NC3COC4(CNC4)C3)nc12 (stereo partly drawn) [Compound 152] | ***** (>2.5° C.=*****)
21 | Cc1cc(N2CC[C@](C)(c3ccccc3)C2)cn2nc(C34CC(NC(=O)Cn5ncnc5C)(CO3)C4)nc12 [Compound 62] | ***** (>2.5° C.=*****)
22 | Cc1cc(N2CC[C@](C)(c3ccccc3)C2)cn2nc(C(=O)NC34CNCC3C4)nc12 (stereo partly drawn) [Compound 185] | ***** (>2.5° C.=*****)
23 | Cc1cc(N2CC[C@](C)(c3ccccc3)C2)cn2nc(C34CC(CO3)C4c3nn[nH]n3)nc12 (stereo partly drawn) [Compound 76] | ***** (>2.5° C.=*****)
24 | COC(=O)c1n[nH]c(N2CCC3(CCN(C(=O)c4nc5c(C)cc(N6CC[C@](C)(c7ccccc7)C6)cn5n4)C3)C2)n1 (stereo partly drawn) [Compound 233] | ***** (>2.5° C.=*****)
25 | Cc1nc(C2C3(CO)COC2(c2nc4c(C)cc(N5CC[C@](C)(c6ccccc6)C5)cn4n2)C3)n[nH]1 (stereo partly drawn) [Compound 43] | ***** (>2.5° C.=*****)
26 | Cc1cc(N2CC[C@](C)(c3ccccc3)C2)cn2nc(C(=O)N3CC4(CCN4Cc4cccc(C(=O)O)n4)C3)nc12 [Compound 260] | ***** (>2.5° C.=*****)
27 | Cc1cc(N2CC[C@](C)(c3ccccc3)C2)cn2nc(C(=O)N[C@H]3CC[C@H](O)C3)nc12 [Compound 105] | ***** (>2.5° C.=*****)

Same assay, conditions: Table B; temperature shift [Tm]compound-[Tm]vehicle; recombinant WIL-FL T46L

Row | SMILES | DSF
28 | Cc1cc(N2CC[C@](C)(c3ccccc3)C2)cn2nc(C34CC(NC(=O)C5CC(C(=O)O)C5)(CO3)C4)nc12 (stereo partly drawn) [Compound 468] | ***** (>2.5° C.=*****)
29 | Cc1cc(N2CC[C@](C)(c3ccccc3)C2)cn2nc(C34CC(CO3)C4c3nc(NC(=O)[C@@H]4C[C@H]4C(=O)O)n[nH]3)nc12 (stereo partly drawn) [Compound 557] | ***** (>2.5° C.=*****)
30 | Cc1nc(C2C3COC2(c2nc4c(C)cc(N5CC[C@](C)(c6ccccc6)C5)cn4n2)C3)cs1 (stereo partly drawn) [Compound 485] | ***** (>2.5° C.=*****)
31 | Cc1cc(N2CC[C@](C)(c3ccccc3)C2)cn2nc(C(=O)N3CCC4(CCN(c5ccc(C(N)=O)c(C(=O)O)n5)C4)C3)nc12 (stereo partly drawn) [Compound 610] | ***** (>2.5° C.=*****)
32 | Cc1cc(N2CC[C@](C)(c3ccccc3)C2)cn2nc(C(=O)N3CC[C@@]4(CCN(C(=O)C56CCC(C(=O)O)(C5)C6)C4)C3)nc12 [Compound 713] | ***** (>2.5° C.=*****)
33 | Cc1cc(N2CC[C@](C)(c3ccccc3)C2)cn2nc(C(=O)N3CCC(Nc4cccc(C(=O)O)n4)C3)nc12 (stereo partly drawn) [Compound 616] | ***** (>2.5° C.=*****)
34 | Cc1cc(N2CC[C@](C)(c3ccccc3)C2)cn2nc(C34CC(CO3)C4N3CC(C)(C)OC3=O)nc12 (stereo partly drawn) [Compound 529, 5,5-dimethyl-3-[1-[8-methyl-6-[(3R)-3-methyl-3-phenyl-pyrrolidin-1-yl]-[1,2,4]triazolo[1,5-a]pyridin-2-yl]-2-oxabicyclo[2.1.1]hexan-5-yl]oxazolidin-2-one] | ***** (>2.5° C.=*****)
35 | Cc1cc(N2CC[C@](C)(c3ccc(Cl)c(F)c3)C2)cn2nc(C(=O)N3CC[C@@]4(CCN(c5cccc(C(=O)O)n5)C4)C3)nc12 [Compound 751] | ***** (>2.5° C.=*****)
36 | Cc1cc(N2CC[C@](C)(c3ccccc3)C2)cn2nc(C34CC(C(=O)Nc5ccnc(C(=O)O)c5)(CO3)C4)nc12 [Compound 456] | ***** (>2.5° C.=*****)
37 | Cc1cc(N2CC[C@](C)(c3ccccc3)C2)cn2nc(C34CC(CO3)C4CN3CCN(C)C(=O)C3)nc12 (stereo partly drawn) [Compound 488] | ***** (>2.5° C.=*****)
38 | Cc1cc(N2CC[C@](C)(c3ccccc3)C2)cn2nc(C34CC(C(=O)N[C@@H](C)CO)(CO3)C4)nc12 [Compound 442] | ***** (>2.5° C.=*****)
39 | Cc1cc(N2CC[C@](C)(c3ccccc3)C2)cn2nc([C@]34C[C@H](CO3)[C@@H]4N3CC4(CC4)NC3=O)nc12 [Compound 523] | ***** (>2.5° C.=*****)
40 | Cc1cc(N2CC[C@](C)(c3ccccc3)C2)cn2nc(C34CC(CO)(CO3)C4c3nc(NS(=O)(=O)CC(C)(C)C(=O)O)n[nH]3)nc12 (stereo partly drawn) [Compound 574] | ***** (>2.5° C.=*****)
41 | Cc1cc(N2CC[C@](C)(c3ccccc3)C2)cn2nc(C(=O)N3CCC4C3CC(=O)N4c3cccc(C(=O)O)n3)nc12 (stereo partly drawn) [Compound 688] | ***** (>2.5° C.=*****)
42 | Cc1cc(N2CC[C@](C)(c3ccccc3)C2)cn2nc(C34CC(CO3)C4c3nc(N)nn3C(=O)C3CC(C)(C(=O)O)C3)nc12 (stereo partly drawn) [Compound 556] | ***** (>2.5° C.=*****)
43 | Cc1cc(N2CC(CF)(c3ccccc3)C2)cn2nc(C(=O)N3CC[C@@]4(CCN(c5cccc(C(=O)O)n5)C4)C3)nc12 [Compound 752, 6-[(5R)-2-[6-[3-(fluoromethyl)-3-phenyl-azetidin-1-yl]-8-methyl-[1,2,4]triazolo[1,5-a]pyridine-2-carbonyl]-2,7-diazaspiro[4.4]nonan-7-yl]pyridine-2-carboxylic acid] | ***** (>2.5° C.=*****)
44 | Cc1cc(N2CC[C@](C)(c3ccccc3)C2)cn2nc(C34CC(CO3)C4Cn3ncc(CO)n3)nc12 (stereo partly drawn) [Compound 482] | ***** (>2.5° C.=*****)
45 | Cc1cc(N2CC[C@](C)(c3ccccc3)C2)cn2nc(C(=O)NC3CC4(C3)CN(C(=O)C3CC(C)(C(=O)O)C3)C4)nc12 (stereo partly drawn) [Compound 680] | ***** (>2.5° C.=*****)
46 | Cc1nc([C@H]2[C@@]3(CO)CO[C@]2(c2nc4c(C)cc(N5CC[C@](C)(c6ccccc6)C5)cn4n2)C3)n[nH]1 [Compound 580, ((1R,4S,5R)-5-(5-methyl-1H-1,2,4-triazol-3-yl)-1-(8-methyl-6-((R)-3-methyl-3-phenylpyrrolidin-1-yl)-[1,2,4]triazolo[1,5-a]pyridin-2-yl)-2-oxabicyclo[2.1.1]hexan-4-yl)methanol] | ***** (>2.5° C.=*****)
47 | Cc1cc(N2CC[C@](C)(c3ccccc3)C2)cn2nc(C(=O)N3CCC4(CCN(c5nccc(C(=O)O)n5)C4)C3)nc12 (stereo partly drawn) [Compound 716] | ***** (>2.5° C.=*****)
48 | Cc1cc(N2CC[C@](C)(c3ccccc3)C2)cn2nc(C(=O)N3CC4COCC4(C(=O)O)C3)nc12 (stereo partly drawn) [Compound 604] | ***** (>2.5° C.=*****)
